Values of other authors in PMC6494845 (Scientific Reports, 2019).

Tests used:
[1] = parameters: method as in PMID 17004725; details: normal mice; cited from earlier work
Aβ aggregates = test system: Aβ aggregates; parameters: method as in PMID 17004725; details: compared with curcumin; cited from earlier work
[2] = parameters: method as in PMID 19807070; details: in methanol; cited from earlier work
[3] = parameters: method as in PMID 9278892; details: cell culture medium containing 10% fetal calf serum and human blood, at 1 h; cited from earlier work
HIV-1 protease = test system: HIV-1 protease; parameters: method as in PMID 8087563; details: cited from earlier work

Compound: COc1cc(/C=C/C(=O)CC(=O)/C=C/c2ccc(OCCC[18F])c(OC)c2)ccc1O [4′-O-[^18F]fluoropropylcurcumin]
- brain permeability [1]: poor brain permeability

Compound: COc1cc(/C=C/C(=O)CC(=O)/C=C/c2ccc(OCCCF)c(OC)c2)ccc1O [4′-O-fluoropropylcurcumin]
- in vitro binding affinity for Aβ aggregates (Aβ aggregates): much higher than that of curcumin

Compound: curcumin
- emission [2]: 560 nm
- excitation [2]: 510 nm
- stability (% remaining) [3]: > 80%
- IC50 (HIV-1 protease): 100 µM
